This note sets out measurements from patent US20210393503A1, “ORGANIC COMPOUNDS” (GIVAUDAN SA, priority 2017, published 2021).

Read-outs that look alike come from different tables or passages of the source.

In series [1] the test system is S. aureus MRSA ATCC 33591. In words: Biofilm visualization by scanning electronic microscopy. In kind it is cell-based, Staphylococcus aureus. The conditions noted are these: 100-300 kDa, 0.2% w/v, colonization with S. Aureus, after 4 h. As for the experimental part:
(§1) Immediately after the arrival in the laboratory, the RHO was removed from the agarose nutrient solution under a sterile airflow cabin. The inserts were rapidly placed in a 6-well plate previously filled with 1 ml of the maintenance medium […] at room temperature. The wells were placed in an incubator at 37° C., 5% CO2 and saturated humidity overnight.
(§2) The protocol was performed on duplicate tissues for bacterial burden and on single tissue for further morphological analysis (SEM, H&E).
(§3) S. aureus MRSA ATCC 33591 was thawed and cultured in nutrient broth at 37° C., under agitation.
(§4) 30 μL of intermediate molecular weight hyaluronic acid solution (0.2% w/v) or of chlorhexidine (CHL) 0.2% (positive control), respectively, were topically applied to RHO samples, and incubated for 24 h. Then, the product residual volume was removed by a micropipette from the epithelium surface.
(§5) The RHO samples were then colonized with S. Aureus bacterial suspensions (O.D. 0.1 about 10^6 UFC/tissue), which was applied topically for 4 h. After 4 h, the remaining S. aureus solution was removed and RHO tissue samples were incubated for 16 h at 37° C., 5% CO2.
The samples for this experiment were prepared according to the procedure of example 5.
After treatment, samples for SEM were immediately fixed by immersion in 2.5% gluteraldehyde in PBS. […]

In series [2] the test system is Reconstituted Human Oral Epithelium (RHO). The experiment in a line: Re-epithelization after injury by TEER (trans epithelial electrical resistance). In kind it is cell-based. The settings on record: 24 h after treatment; RHO injured with glass capillary; vs control not treated after injury; FIG. 1. As for the experimental part: Experiments were performed on Reconstituted Human Oral Epithelium (RHO).
Immediately after the arrival in the laboratory, the RHO was removed from the agarose nutrient solution under a sterile airflow cabin. The inserts were rapidly placed in a 6-well plate previously filled with 1 ml of the maintenance medium at room temperature. The wells were placed in an incubator at 37° C., 5% CO2 and saturated humidity overnight.
On the next day, an injury was performed with a glass capillary.
The RHO samples were then treated with a solution containing hyaluronic acid having low (20-50 kDa), intermediate (100-300 kDa) or high (1,000-1,400 kDa) molecular weight. Untreated RHO was used as a control without treatment.
(§6) The RHO samples for this assessment were prepared according to the procedure of example 1.
24 h after the treatment with hyaluronic acid, the trans epithelial electric resistance (TEER) was measured as follows:
0.5 ml of physiological saline solution was directly applied on the tissue placed in a 6-well plate containing 5 ml of saline solution as well. The two electrodes of a Millicell-ERS Voltohmmeter (range 0-20 kΩ) were placed were placed in two compartments on either side of the tissue, such that the electric flux passed through the tissue. The result of the measurement directly appeared on the display. […]

The test system of series [3] is Integrin beta 1 (ITGB1). In words: Re-epithelization after injury by immunohistochemistry on Integrin B1. In kind it is cell-based, human. The settings on record: injured RHO, vs injured control, FIG. 7. Here is the method: as §6
At the end of the exposures (at least overnight), the tissue samples were fixed in buffered 10% formalin. Samples were included in paraffin blocks and sections of 5 μm were prepared. These slides were stained with Haematoxilin and Eosin.
The used technique allows for visualization of a specific protein or antigen in cells or tissue sections by binding a specific antibody chemically conjugated with a fluorescent dye. The indirect immunofluorescence staining is a procedure, in which a secondary antibody labelled with a fluorochrome is used to recognize a primary antibody. Immunofluorescence staining can be performed on cells fixed on slides and tissue sections. Immunofluorescence stained samples are examined under a fluorescence microscope or confocal microscope.
INTEGRIN (ITGB1): Mouse monoclonal antibody anti-Integrin beta 1 (Abcam, ab3167) diluted at 2 μg/ml for a 2 h incubation at room temperature in 1% BSA in PBS; and the secondary antibody in Alexa Fluor 488 goat anti-mouse (Invitrogen, A10680). The nuclei were stained with Dapi.
The slices were examined under a Leica DM 2500 FLUO microscope and analyzed by Leica LAS software.

For series [4], the system named is Reconstituted Human Oral Epithelium (RHO) colonized with S. Aureus. In words: Biofilm formation by TEER on colonized RHO. In kind it is cell-based. Here is the method: as §1, §2, §3, §4
The RHO samples were then colonized with S. Aureus bacterial suspensions (O.D. 0.1 about 10^6 UFC/tissue), which was applied topically for 4 h. After 4 h, the remaining S. aureus solution was removed and RHO tissue samples were incubated for 16 h at 37° C., 5% CO2. […]
TEER was measured as described hereafter: 0.5 ml of physiological saline solution was directly applied on the tissue placed in a 6-well plate containing 5 ml of saline solution as well. […]

For series [5], the system named is Reconstituted Human Oral Epithelium (RHO). In words: Re-epithelization after injury by scanning electronic microscopy. In kind it is cell-based. The settings on record: T24h after injury; for tissue repair / wound recovery seen by SEM: low 0.5%, intermediate 0.2%, high 0.2%, magnification 10000x, FIGS. 4-6; for film forming on the tissue surface: high molecular weight 0.2%, FIG. 6. Here is the method:
Experiments were performed on Reconstituted Human Oral Epithelium (RHO). Immediately after the arrival in the laboratory, the RHO was removed from the agarose nutrient solution under a sterile airflow cabin. The inserts were rapidly placed in a 6-well plate previously filled with 1 ml of the maintenance medium at room temperature. The wells were placed in an incubator at 37° C., 5% CO2 and saturated humidity overnight. On the next day, an injury was performed with a glass capillary. The RHO samples were then treated with a solution containing hyaluronic acid having low (20-50 kDa), intermediate (100-300 kDa) or high (1,000-1,400 kDa) molecular weight. Untreated RHO was used as a control without treatment. The RHO samples for this assessment were prepared according to the procedure of example 1. 24 h after treatment with hyaluronic acid, the samples for scanning electronic microscopy (SEM) were immediately fixed by immersion in 2.5% glutaraldehyde in phosphate buffered saline (PBS) for 24 h, washing in 0.1 M sodium cacodylate buffer, pH 7.4, and then carried out in 1% osmium tetraoxide (OsO4) in the same buffer (2 h at room temperature). The samples were dehydrated in ascending grades of ethanol at room temperature and Hexamethyldisilazane overnight. The samples were placed on pins with carbon tabs, coated with a layer of gold using a Polaron Equipment limited SEM coating unit […], and then transferred to a SEM Zeiss Sigma Electron Microscope for viewing and photography. Magnification of 10000× was performed.

The subject of series [6] is S. aureus MRSA ATCC 33591. In words: Biofilm formation by bacterial count on colonized RHO. In kind it is cell-based, Staphylococcus aureus. Here is the method:
as §1, §2, §3, §4, §5
The samples for this assessment were prepared according to the procedure of example 5.
In order to perform the bacterial count on apical, basolateral and homogenate compartments, the following procedure was used: • For the basolateral compartment: 1 ml of culture medium from each well was sampled. • For the apical compartment, the samples from the TEER measurement according to example 6 were used: Each sample contained 500 μl of physiological saline solution. These samples were moved to a new 6-well plate that had been previously filled with 2 ml/well of saline solution and put in a sonicator bath for 7 minutes at 40 kHz. After sonication, 500 μl of saline solution were sampled for the apical compartment and the RHO tissues were rinsed twice with 200 μl of saline solution. The total amount of solution (900 μl) was then pooled together to obtain the harvested apical compartment. • For the homogenate compartment: a sterile scalpel blade has been used to harvest tissues from the insert and to place them in an Eppendorf tube containing 500 μL of 0.5% Triton X-100 solution prepared in sterile distilled water for at least 10 minutes.
Bacterial counts of the three compartments were performed on Nutrient Agar plates, plating the appropriate 10-fold dilutions (from the not diluted to 10-7) of each compartment suspension (one 10 μl drop for each dilution). After 1 day of incubation at 37° C., the colonies were numbered visually.

Series [7] has as its system ZO-1. The experiment in a line: Re-epithelization after injury by immunohistochemistry on ZO-1. The conditions noted are these: injured RHO, vs injured control; FIG. 7. In kind it is cell-based, human. Here is the method: The RHO samples for this assessment were prepared according to the procedure of example 1. At the end of the exposures (at least overnight), the tissue samples were fixed in buffered 10% formalin. Samples were included in paraffin blocks and sections of 5 μm were prepared. These slides were stained with Haematoxilin and Eosin. The used technique allows for visualization of a specific protein or antigen in cells or tissue sections by binding a specific antibody chemically conjugated with a fluorescent dye. The indirect immunofluorescence staining is a procedure, in which a secondary antibody labelled with a fluorochrome is used to recognize a primary antibody. Immunofluorescence staining can be performed on cells fixed on slides and tissue sections. Immunofluorescence stained samples are examined under a fluorescence microscope or confocal microscope. […] ZO-1: Rabbit polyclonal antibody anti-ZO-1 (Invitrogen, 61-7300), diluted at 5 μg/ml for an overnight incubation at 4° C. in 1% bovine serum albumin (BSA) in PBS; and the secondary antibody in Alexa Fluor 555 donkey anti-rabbit (Invitrogen, A31572). The nuclei were stained with (4′,6-diamidino-2-phenylindole) (Dapi). The slices were examined under a Leica DM 2500 FLUO microscope and analyzed by Leica LAS software.

“hyaluronic acid [intermediate molecular weight hyaluronic acid]”: in series [1] (FIG. 13), the “polysaccharide matrix (biofilm formation) by SEM” value is “No polysaccharide matrix is visible”. In addition, the “colonies in cluster by SEM” value in series [1] (FIG. 13 vs FIG. 12) is given as “less colonies are in cluster”. Moreover, the “TEER (barrier function) after injury” value in series [2] is on record as “improved the barrier function after an injury”. Moreover, the “Integrin beta 1 expression (immunofluorescence)” value in series [3] (listed as hyaluronic acid of intermediate molecular weight) is recorded as “over-expression of integrin beta 1 exclusively”. Moreover, in series [4], the “TEER (barrier function) of colonized RHO” value is listed as “did not affect TEER”. Besides, the “tissue repair / wound recovery seen by SEM” value in series [5] is given as “active process of tissue repair”. Also, the “decrease of the bacterial count, apical compartment” value in series [6] (0.2% w/v applied 24 h before colonization with S. Aureus, FIG. 9) is given as “about 50%”. For the same compound, the “decrease of the bacterial count, homogenate compartment” value in series [6] (0.2% w/v applied 24 h before colonization with S. Aureus, FIG. 10) is reported as “about 50%”. Moreover, the “total bacterial count (bacterial proliferation)” value in series [6] (summary of examples 5-9) is given as −50%.

Consider `[H]/N=C(\N/C(=N/[H])NCCCCCCNC(=N)NC(=N)Nc1ccc(Cl)cc1)Nc1ccc(Cl)cc1` [CHL, chlorhexidine, reference compound], for which the “TEER (barrier function) of colonized RHO” value in series [4] (0.2% applied 24 h before colonization with S. Aureus for 4 h, then 16 h incubation, FIG. 8) is recorded as “TEER decreased”. Moreover, in series [6] (0.2% applied 24 h before colonization with S. Aureus, FIGS. 9 and 10), the “bacterial count, result in words” value was “strong bactericidal property”.

For the compound “hyaluronic acid [high molecular weight hyaluronic acid]”, the results for the “film forming on the tissue surface” value in series [5] and in series [5] (listed as hyaluronic acid of high molecular weight) were “film forming was observed” and “forming a film on the skin surface”, respectively. Moreover, in series [5], the “tissue repair / wound recovery seen by SEM” value is “significantly less advanced”.

As to “hyaluronic acid [low molecular weight hyaluronic acid]”, the “TEER (barrier function) after injury” value in series [2] is recorded as “improved the barrier function after an injury”. Besides, the “Integrin beta 1 expression (immunofluorescence)” value in series [3] is “induced an over-expression”. The “tissue repair / wound recovery seen by SEM” value in series [5] is recorded as “led to a recovery of the wound”. For the same compound, in series [7], the “ZO-1 expression (immunofluorescence)” value was “induced an over-expression”.
